AC50 data for 92 compounds are collected here from PubChem BioAssay AID463203 (Broad Institute, 2010).

As a reminder, the AC50 is the concentration at which the activity in the assay is half-maximal.

The source made the active and inactive calls.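 The calls were made as follows: active = more than half of replicate measurements showing over 20% loss of kinase signal relative to plate controls; inconclusive = some but at most half of replicates over 20% loss; inactive = no replicate over 20% signal loss.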

For this test, the target named is Glycogen synthase kinase-3 alpha (Homo sapiens) (UniProt P49840). Kind of test: concentration-response blocking of human GSK3A – biochemical, luminescence, cell-free homogeneous, retest, dose response (AID 463203). The note with it: GSK-3 alpha enzyme, ADP-Glo luminescence, 60 min. (In ADP-Glo the light output rises with the ADP produced.)
Sequence of Glycogen synthase kinase-3 alpha (Homo sapiens) (P49840 whole entry, looked up): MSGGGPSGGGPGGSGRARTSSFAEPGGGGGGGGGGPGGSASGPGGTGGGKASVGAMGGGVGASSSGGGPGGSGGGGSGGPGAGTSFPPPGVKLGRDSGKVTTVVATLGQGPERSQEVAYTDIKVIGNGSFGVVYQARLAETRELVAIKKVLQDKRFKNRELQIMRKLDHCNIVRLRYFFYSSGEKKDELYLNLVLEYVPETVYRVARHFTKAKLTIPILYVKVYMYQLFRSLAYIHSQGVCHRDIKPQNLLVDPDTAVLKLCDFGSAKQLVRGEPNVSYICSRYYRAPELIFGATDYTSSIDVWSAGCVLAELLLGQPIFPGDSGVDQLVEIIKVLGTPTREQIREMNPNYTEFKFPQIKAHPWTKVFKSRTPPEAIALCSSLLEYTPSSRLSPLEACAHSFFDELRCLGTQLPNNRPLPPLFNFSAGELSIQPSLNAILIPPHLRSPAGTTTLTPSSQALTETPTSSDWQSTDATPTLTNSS

For `O=C(COc1ccc(-n2cnnn2)cc1)Nc1ccc(F)c(F)c1F`, the AC50 is > 30 µM (inactive).

Regarding `CN(C)c1ccc(/C=N/NC(=O)c2ccccc2Cl)cc1`, the AC50 was > 30 µM (inactive).

Consider `COc1ccc(/C=C2\Oc3cc(OCC(=O)N4CC(O)C[C@H]4C(=O)O)ccc3C2=O)cc1OC` (some centres not stated), for which the AC50 was > 30 µM (inactive).

Turning to `Nc1nc(-c2ccccc2)cc(-c2ccccc2O)n1`, the AC50 is 25.4 µM.

Consider `N#Cc1ccccc1Cn1cc(/C=N/Nc2ccc([N+](=O)[O-])cn2)c2ccccc21`, for which the AC50 is > 30 µM (inactive).

As to `COc1ccc(C2=Nn3c(nnc3-c3cccnc3)SC2)cc1OC`, the AC50 is > 30 µM (inactive).

Regarding `O=C1CC(/C=C/c2ccncc2)=Nc2ccccc2N1`, the concentration at half-maximal activity (AC50) is 13.1 µM.

Take `CN1/C(=C\C=C2C(=O)NC(=O)NC2=O)C(C)(C)c2ccccc21`: the concentration at half-maximal activity (AC50) was 27.9 µM.

As for `C=CCn1c(O)c(C(C)=NCCCn2ccnc2)c(=O)[nH]c1=O`, the AC50 is 19.4 µM.

Take `COc1ccc(CC(=S)N2CCOCC2)cc1OC`: the AC50 was > 30 µM (inactive).

For the compound `COc1ccccc1N1CC(C(=O)Nc2nc(C)cs2)CC1=O` (configuration not stated), the AC50 was > 30 µM (inactive).

As to `COc1ccc2[nH]c(=O)c3c(c2c1)OC(C)(C)C=C3`, the AC50 was 10.4 µM.

For the compound `COCCNc1nc(N)c([N+](=O)[O-])c(NCc2ccccc2)n1`, the AC50 was 7.15 µM.

As to `Fc1ccccc1CSc1nnc(-c2cccnc2)o1`, the AC50 was > 30 µM (inactive).

On to `O=C(NCc1ccc(C(=O)N2CCC3(CC2)OCCO3)cc1)c1ccc2c(c1)OCO2`, for which the AC50 was > 30 µM (inactive).

As to `COCCCNc1nc2nonc2nc1N1C[C@H]2CC[C@H]1C2`, the AC50 is > 30 µM (inactive).

As for `COc1cccc(-c2c(C(=O)N/N=C(\C)c3cccnc3)nnn2-c2nonc2N)c1`, the AC50 was > 30 µM (inactive).

On to `COc1cccc2c1C(=O)O/C2=C/c1ccc2c(c1)OCO2`, for which the AC50 was > 30 µM (inactive).

With `C=CC(=O)Nc1sc2c(c1C(N)=O)CCCC2`, the half-maximal activity concentration (AC50) was 13.9 µM.

On to `CCCCC(=O)Nc1nn(CCC)c2nc3ccccc3cc12`, for which the AC50 was > 30 µM (inactive).

Take `CCc1ccc(C2CC(c3cccc(Cl)c3)n3nc(N)nc3N2)cc1` (configuration not stated): the AC50 is > 30 µM (inactive).

As for `COc1ccc(-c2cc(C(=O)N3CCN(c4ccccc4OC)CC3)no2)cc1OC`, the AC50 is > 30 µM (inactive).

Take `C[C@H](CO)N1C[C@H](C)[C@@H](CN(C)S(=O)(=O)c2ccc(F)cc2)Oc2c(NC(=O)Cc3ccccc3)cccc2C1=O`: the AC50 was > 30 µM (inactive).

For `CC(=O)Nc1ccc(Oc2ccc3c(c2)C(=O)NC3=O)cc1`, the AC50 was 25 µM.

`CN(c1nc2nonc2nc1NC1CC1)C1CCOC1` (configuration not stated): the AC50 was > 30 µM (inactive).

`CSc1ccc(/C=C2\NC(=O)NC2=O)cc1`: the AC50 was 27.9 µM.

For `Oc1ccc(/C=N/NC(=S)N/N=C/c2ccc(O)cc2)cc1`, the half-maximal activity concentration (AC50) is 23.5 µM.

For `CCOC(=O)CSc1nc(N)c(C#N)c(-c2cccs2)c1C#N`, the AC50 is > 30 µM (inactive).

On to `CC(C)=CC(=O)NCc1c(Cl)cccc1-n1cccc1`, for which the AC50 was > 30 µM (inactive).

For the compound `CCc1nnc(NC(=O)c2cccc(S(=O)(=O)N3CC(c4ccccc4)CC3=O)c2)s1` (configuration not stated), the AC50 is > 30 µM (inactive).

Turning to `O=C1c2c(O)ccc(O)c2C(=O)c2c(NCCNCCO)ccc(NCCNCCO)c21`, the half-maximal activity concentration (AC50) is 28.3 µM.

For `CCOc1cc(C(c2c(C)[nH][nH]c2=O)c2c(C)[nH][nH]c2=O)ccc1O`, the AC50 was > 30 µM (inactive).

Turning to `CCOC(=O)c1ccc(N2CSC3=C(C#N)C(c4ccc(OC)cc4OC)CC(=O)N3C2)cc1` (configuration not stated), the AC50 was > 30 µM (inactive).

For the compound `COc1ccc(-c2cc(C(F)(F)F)nc(SCCC(=O)NCc3ccco3)n2)cc1`, the AC50 is > 30 µM (inactive).

For the compound `O=C(CNCC1CCCO1)Nc1ccc([N+](=O)[O-])cc1C(=O)Nc1ccccc1F` (configuration not stated), the AC50 is > 30 µM (inactive).

`CCCNc1nc(Cl)nc(Nc2ccc(Cl)cc2)n1`: the AC50 is > 30 µM (inactive).

`O=C(CN(Cc1ccc(F)cc1)C(=O)CCC(=O)Nc1nccs1)NCc1ccc(F)cc1`: the AC50 was 9.59 µM.

Consider `CCN1C(=O)C(=C/C=C/c2ccco2)C(=O)N(CC)C1=S`, for which the AC50 was > 30 µM (inactive).

For the compound `O=S(=O)(Nc1ccc(-c2nnc(SCc3ccc(Cl)cc3)o2)cc1)c1ccccc1`, the AC50 is > 30 µM (inactive).

Take `Cc1onc(-c2ccccc2)c1C(=O)NCCN1CCOCC1`: the AC50 is > 30 µM (inactive).

With `N#CC1=C(SCC(=O)c2ccccc2)NC2=C(C(=O)CCC2)C1c1ccco1` (configuration not stated), the AC50 is > 30 µM (inactive).

On to `Nc1c(CO)nnn1-c1ccccc1`, for which the concentration at half-maximal activity (AC50) is 11.4 µM.

In the case of `C=CCSc1ncnc2c1oc1nc3c(cc12)COC(C)(C)C3`, the AC50 is > 30 µM (inactive).

With `COc1ccc(NC(=O)c2nnn(Cc3ccc(SC)cc3)c2N)c(OC)c1`, the AC50 is > 30 µM (inactive).

With `CCOc1ccc2ncc(S(=O)(=O)c3ccccc3)c(N3CCN(c4ccccc4)CC3)c2c1`, the AC50 was > 30 µM (inactive).

For the compound `CCCOc1ccc(-c2nnc(N)s2)cc1`, the AC50 was > 30 µM (inactive).

Turning to `COC(=O)CSc1nc(NCC(C)C)nc(N2CCOCC2)n1`, the AC50 is > 30 µM (inactive).

For the compound `Fc1ccc(C2=Nn3c(nnc3-c3ccco3)SC2)cc1`, the AC50 was > 30 µM (inactive).

For the compound `CCOC(=O)c1c(NC(=O)C2CC2)sc(C)c1CC`, the AC50 was > 30 µM (inactive).

As for `COC(=O)c1cn(-c2ccccc2)nc1-c1cccnc1`, the AC50 is > 30 µM (inactive).

As for `Cc1ccc2oc(=O)c3cnn(CC(=O)N4CCCCC4C)c3c2c1` (configuration not stated), the AC50 is > 30 µM (inactive).

`O=C(COC(=O)CCc1ccc(S(=O)(=O)N2CCOCC2)cc1)Nc1ccc(Cl)cn1`: the concentration at half-maximal activity (AC50) was 28.4 µM.

Take `CCCCn1c(O)c(C(C)=NCCCn2ccnc2)c(=O)[nH]c1=O`: the concentration at half-maximal activity (AC50) was 11.1 µM.

As to `CN(C)C(=O)Oc1ccc([N+](=O)[O-])cc1`, the AC50 was > 30 µM (inactive).

Consider `Oc1ccc(-c2nnc(-c3ccccc3)c(-c3ccccc3)n2)cc1`, for which the AC50 was > 30 µM (inactive).

For `COC(=O)[C@H](C)NC(=O)NCc1ccccc1F`, the AC50 is > 30 µM (inactive).

For `CC1(C)CC(=O)C(C(c2ccncc2)C2C(=O)CC(C)(C)CC2=O)C(=O)C1`, the AC50 was > 30 µM (inactive).

`O=C(Nc1ccccc1C(=O)NC1CCCCC1)c1ccco1`: the AC50 was > 30 µM (inactive).

`Cc1c(C(=O)OC(C)C)[nH]c2c1C(=O)CC(C)(C)C2`: the AC50 was > 30 µM (inactive).

Turning to `O=[N+]([O-])c1ccc(O)c(/C=N/n2c(-c3ccccc3)n[nH]c2=S)c1`, the AC50 was 26.3 µM.

For the compound `CC(C)OC(=O)c1nnn(-c2nonc2N)c1CN1CCCCCC1`, the AC50 was > 30 µM (inactive).

`OCc1nnn(-c2ccccc2)c1CO`: the AC50 is > 30 µM (inactive).

Turning to `CC1CCC[C@H](O)CCCCCc2cc(O)cc(O)c2C(=O)O1` (some centres not stated), the AC50 was > 30 µM (inactive).

Take `Cc1oc2ccc(O)c(CN3CCOCC3)c2c1C(=O)c1ccc(Cl)cc1`: the AC50 is > 30 µM (inactive).

`O=C(NCCCN1CCCC1)c1cc2c(Cl)nc3ccccc3c2s1`: the AC50 is > 30 µM (inactive).

Take `COc1ccc(-c2nc(N)n[nH]2)cc1`: the AC50 was > 30 µM (inactive).

Turning to `COc1cccc(NC(=O)Nc2cc(Cl)ccc2C)c1`, the AC50 is > 30 µM (inactive).

For the compound `CCOc1ccc(Cn2nnc(C(=O)Nc3cc(C)cc(C)c3)c2N)cc1`, the AC50 is > 30 µM (inactive).

For `Cc1ccc(N(CC(O)CN2CCCC2)S(=O)(=O)c2ccccc2)cc1` (configuration not stated), the AC50 was > 30 µM (inactive).

On to `CCOC(=O)C1=C(C)NC(C)=C(C(=O)OCC)C1c1sccc1C`, for which the AC50 is > 30 µM (inactive).

Take `O=C(N/N=C/c1cccnc1)c1cc2c(ccc3ccccc32)o1`: the AC50 was > 30 µM (inactive).

`Cc1ccnc2ccc(SC(F)(F)F)cc12`: the AC50 was > 30 µM (inactive).

On to `O=C(O)CCSc1nnc(-c2ccncc2)n1-c1ccccc1`, for which the AC50 was > 30 µM (inactive).

Regarding `CCOC(=O)c1nc(NCc2cccc(OC)c2)c2ccccc2n1`, the AC50 was > 30 µM (inactive).

`CCOC(=O)c1nn(-c2ccc(Cl)cc2)c2nc(Nc3ccccc3)cc(=O)n12`: the AC50 is > 30 µM (inactive).

In the case of `CCN1C(=O)c2ccc(C(=O)NCc3ccc4c(c3)OCO4)cc2C1=O`, the AC50 was > 30 µM (inactive).

Turning to `C[C@H]1CCCC(=O)CCCCCc2cc(O)cc(O)c2C(=O)O1`, the concentration at half-maximal activity (AC50) is 28.3 µM.

On to `CCCOc1ccc(-c2c(C(=O)N/N=C(\C)c3ccncc3)nnn2-c2nonc2N)cc1`, for which the AC50 is > 30 µM (inactive).

Consider `CCCOC(=O)c1[nH]c2c(c1C)C(=O)CC(c1cc(OC)c(OC)c(OC)c1)C2` (configuration not stated), for which the AC50 is > 30 µM (inactive).

Turning to `CN1/C(=C/C2CC(=O)NC2=O)C(C)(C)c2ccccc21` (configuration not stated), the AC50 was 5.14 µM.

Take `CC(C)c1[nH]nc2c1C(c1ccco1)C(C#N)=C(N)O2` (configuration not stated): the AC50 is > 30 µM (inactive).

Turning to `CNc1nnc(-c2cc3ccccc3oc2=O)s1`, the half-maximal activity concentration (AC50) was 8.99 µM.

In the case of `Cc1cccc(C)c1OCC(O)CNC(C)(C)C` (configuration not stated), the AC50 is > 30 µM (inactive).

As for `CCOC(=O)c1cnc2c(C)cc(Cl)cc2c1N1CCN(C)CC1`, the AC50 is > 30 µM (inactive).

Consider `CC1CCCCC12NC(=O)N(CC(=O)Nc1sc3c(c1C(N)=O)CCC3)C2=O` (configuration not stated), for which the AC50 is 11.4 µM.

For the compound `Cc1cc2nc(-c3ccc(SCC(=O)NC(C)C)nc3)[nH]c2cc1C`, the AC50 is > 30 µM (inactive).

Consider `N#C/C(=N\Nc1ccc(Cl)cc1)C(N)=S`, for which the AC50 was > 30 µM (inactive).

On to `Cn1c(SCC(=O)N/N=C/C=C/c2ccco2)nc2ccccc21`, for which the AC50 is > 30 µM (inactive).

Consider `CCOCCOC(=O)c1[nH]c2c(c1C)C(=O)CC(c1cc(OC)c(OC)c(OC)c1)C2` (configuration not stated), for which the AC50 is > 30 µM (inactive).

`COc1ccc(NC(=O)CSc2nnc(-c3cccc(O)c3)o2)cc1`: the AC50 was > 30 µM (inactive).

For the compound `CC(C)N=C(NC#N)SCc1ccc(F)cc1`, the AC50 was > 30 µM (inactive).

On to `N#CC1=C2SCN(Cc3ccco3)CN2C(=O)CC1c1ccc(Cl)cc1` (configuration not stated), for which the AC50 is > 30 µM (inactive).
